These results are taken from patent publication US20230277511A1, “RAPAMYCIN (RAPA) COMPOSITION AND PREPARATION METHOD THEREOF” (priority 2020, published 2023).

The subject of this test is AS model mice (ApoE−/− mice). Put plainly: Therapeutic effect on AS in AS model mice (plaque area). It is filed as in vivo. Conditions: 1.5 mg/kg intraperitoneally every two days for 3 months, mean±SD, FIG. 10. As to the method:
Animal: Apolipoprotein gene-knockout mice (ApoE−/− mice) each with a weight of 18 g to 25 g were purchased from Peking University Laboratory Animal Center.
Construction of AS model mice: The mice were raised to be 8 weeks old in an SPF-grade environment (room temperature: 23° C., relative humidity: 65%, and 12 h light-dark cycle) and then fed with a high-fat feed for 12 weeks to obtain the AS model mice, and then each of the AS model mice was administered. Blood vessels were collected and stained, and a proportion of a plaque area was calculated according to the following formula: AA:AA=P/PO. The data were expressed by mean±standard deviation (SD). The t-test was adopted for statistical analysis. P<0.05 indicated a significant difference. All data were analyzed by software.
Grouping and administration regimen: Blank group: Each of the mice was intraperitoneally injected with 0.2 mL of NS every two days. Control group: Each of the mice was intraperitoneally injected with a RAPA solution diluted with NS to a desired concentration (administration amount: 1.5 mg/kg) every two days. Drug group: Each of the mice was intraperitoneally injected with the RAPA composition in Example 4 at 1.5 mg/kg every two days. The administration was conducted continuously for 3 months, during which state changes in mice were observed. […]

Regarding `CO[C@H]1C[C@@H]2CC[C@@H](C)[C@@](O)(O2)C(=O)C(=O)N2CCCC[C@H]2C(=O)O[C@H]([C@H](C)C[C@@H]2CC[C@@H](O)[C@H](OC)C2)CC(=O)[C@H](C)/C=C(\C)[C@@H](O)[C@@H](OC)C(=O)[C@H](C)C[C@H](C)/C=C/C=C/C=C/1C` [RAPA, rapamycin], the “plaque area/total vascular area” value is 48.33%±2.851%.
